The values that follow are results of earlier work, collected in patent US4127524A, “Novel dodecapeptides, intermediates therefor, and compositions and methods employing said dodecapeptides” (priority 1977, dated 1978).

Series [1] concerns partially purified brain opiate receptor sites.
A further series concerns rat. The following applies: injected directly into the brain of the rat.

“H-Tyr-Gly-Gly-Phe-Met-OH [methionine enkephalin]”: the “binding to partially purified brain opiate receptor sites” value in series [1] is “binds stereo-specifically”. The analgesic activity result with rat is “only weak analgesic agent of short duration”.
